Results: patent US12376590B2, “Compositions comprising pyridine carboxylate herbicides and azole carboxylate safeners” (Corteva Agriscience LLC, priority 2018, dated 2025)

Assays:
Test in all cases: Greenhouse postemergence herbicidal safening trial, visual injury after 20-22 d
[1] = test system: Italian ryegrass (LOLMU); format: in vivo, Lolium multiflorum
Text: (§1) Greenhouse Trial Methodology—Evaluation of Postemergence Herbicidal Safening in Crops
(§2) Seeds of the desired test plant species were planted in a 90:10% v/v (volume/volume) mixture of PRO-MIX® BX (Premier Tech Horticulture, Quakertown, PA, USA) and PROFILE® GREENS GRADE™ (Profile Products LLC, Buffalo Grove, IL, USA) planting mixture, which typically has a pH of 5.2 to 6.2 and an organic matter content of at least 50 percent, in plastic pots with a surface area of 103.2 square centimeters (cm^2). When required to ensure good germination and healthy plants, a fungicide treatment and/or other chemical or physical treatment was applied. The plants were grown for 7-36 days (d) in a greenhouse with an approximate 14-hour (h) photo-period which was maintained at about 23° C. during the day and 22° C. during the night. Nutrients and water were added on a regular basis and supplemental lighting was provided with overhead metal halide 1000-Watt lamps as necessary. The plants were employed for testing when they reached the second or third true leaf stage.
(§3) Emulsifiable concentrates of each of each pyridine carboxylate herbicide (Compound A or Compound B) were prepared at 100 grams acid equivalent per liter (g ae/L). An aliquot of each emulsifiable concentrate was placed in a 25 mL glass vial and diluted with an aqueous mixture of 1.25% (v/v) ACTIROB® B esterified rapeseed oil (Bayer Crop Science, Research Triangle Park, NC, USA) or MSO® Concentrate with LECI-TECH® methylated soybean oil (Loveland Products, Loveland, CO, USA) to obtain concentrated stock solutions at the highest application rate for each herbicide, based upon a 12 milliliter (mL) application volume at a rate of 187 liters per hectare (L/ha). The concentrated stock solutions were further diluted with an aqueous mixture of 1.25% v/v ACTIROB® B or MSO® Concentrate with LECI-TECH® to obtain stock solutions at reduced application rates for each herbicide. Spray solutions of the herbicide combinations (Compound A or Compound B plus safener) were prepared by adding weighed amounts or aliquots of the azole carboxylate safener to the stock solutions of Compound A or Compound B to form 12-mL spray solutions in two-way combinations.
(§4) The spray solutions were applied to the plant material with an overhead Mandel track sprayer equipped with 8002E nozzles calibrated to deliver 187 L/ha over an application area of 0.503 square meters (m^2) at a spray height of 18 inches (43 centimeters (cm)) above the average plant canopy. Control plants were sprayed in the same manner with the solvent blank. All herbicide (component a) application rates are given as “g ae/ha” and all safener (component b) application rates are given as “g ai/ha.”
(§5) The treated plants and control plants were placed in a greenhouse as described above and watered by sub-irrigation to prevent wash-off of the test compounds. After 20-22 d, the condition of the test plants as compared with that of the control plants was determined visually and scored on a scale of 0 to 100 percent where 0 corresponds to no injury and 100 corresponds to complete kill.

[2] = test system: Johnson grass (SORHA); format: in vivo, Sorghum halepense
Text: as §1, §2, §3, §4, §5

[3] = test system: barnyardgrass (ECHCG); format: in vivo, Echinochloa crus-galli
Text: as §1, §2, §3, §4, §5

[4] = test system: Canada horseweed (ERICA); format: in vivo, Erigeron canadensis
Text: as §1, §2, §3, §4, §5

[5] = test system: spring wheat (TRZAS); format: in vivo, Triticum aestivum; settings: applied alone
Text: as §1, §2, §3, §4, §5

[6] = test system: winter wheat (TRZAW); format: in vivo, Triticum aestivum
Text: as §1, §2, §3, §4, §5

[7] = test system: maize (ZEAMX); format: in vivo, Zea mays
Text: as §1, §2, §3, §4, §5

[8] = test system: soybean (GLXMA); format: in vivo, Glycine max
Text: as §1, §2, §3, §4, §5

[9] = test system: wild buckwheat (POLCO); format: in vivo, Polygonum convolvulus
Text: as §1, §2, §3, §4, §5

[10] = test system: winter rape (BRSNW); format: in vivo, Brassica napus
Text: as §1, §2, §3, §4, §5

[11] = test system: Canada thistle (CIRAR); format: in vivo, Cirsium arvense
Text: as §1, §2, §3, §4, §5

[12] = test system: kochia (KCHSC); format: in vivo, Kochia scoparia
Text: as §1, §2, §3, §4, §5

[13] = test system: herbicide-resistant kochia (KCHSC-R); format: in vivo, Kochia scoparia
Text: as §1, §2, §3, §4, §5

[14] = test system: ivyleaf morningglory (IPOHE); format: in vivo, Ipomoea hederacea
Text: as §1, §2, §3, §4, §5

[15] = test system: common lambsquarters (CHEAL); format: in vivo, Chenopodium album L.
Text: as §1, §2, §3, §4, §5

[16] = test system: Chinese sprangletop (LEFCH); format: in vivo, Leptochloa chinensis
Text: as §1, §2, §3, §4, §5

Measured: % visual injury Ob

CCOC(=O)C1=NN(c2ccc(Cl)cc2Cl)C(C)(C(=O)OCC)C1 (stereo not shown) [Mefenpyr-diethyl, mefenpyr-diethyl]
0%: [1]; Mefenpyr-diethyl 20 g/ha | [1]; Mefenpyr-diethyl 40 g/ha | [1]; Mefenpyr-diethyl 80 g/ha | [2]; Mefenpyr-diethyl 20 g/ha | [2]; Mefenpyr-diethyl 40 g/ha | [2]; Mefenpyr-diethyl 80 g/ha | [3]; Mefenpyr-diethyl 20 g/ha | [3]; Mefenpyr-diethyl 40 g/ha | [3]; Mefenpyr-diethyl 80 g/ha | [4]; Mefenpyr-diethyl 20 g/ha | [4]; Mefenpyr-diethyl 40 g/ha | [4]; Mefenpyr-diethyl 80 g/ha | [5]; 10 g/ha | [5]; 20 g/ha | [5]; 40 g/ha | [5]; 80 g/ha | [5]; 120 g/ha | [6]; Mefenpyr-diethyl 20 g/ha | [6]; Mefenpyr-diethyl 40 g/ha | [6]; Mefenpyr-diethyl 80 g/ha | [6]; applied alone, 20 g/ha | [6]; applied alone, 40 g/ha | [6]; applied alone, 80 g/ha | [6]; applied alone, 120 g/ha | [7]; Mefenpyr-diethyl 20 g/ha | [7]; Mefenpyr-diethyl 40 g/ha | [7]; Mefenpyr-diethyl 80 g/ha | [7]; applied alone, 20 g/ha | [7]; applied alone, 40 g/ha | [7]; applied alone, 80 g/ha | [7]; applied alone, 120 g/ha | [8]; Mefenpyr-diethyl 20 g/ha | [8]; Mefenpyr-diethyl 40 g/ha | [8]; Mefenpyr-diethyl 80 g/ha | [9]; Mefenpyr-diethyl 20 g/ha | [9]; Mefenpyr-diethyl 40 g/ha | [9]; Mefenpyr-diethyl 80 g/ha | [10]; Mefenpyr-diethyl 20 g/ha | [10]; Mefenpyr-diethyl 40 g/ha | [10]; Mefenpyr-diethyl 80 g/ha | [11]; Mefenpyr-diethyl 20 g/ha | [11]; Mefenpyr-diethyl 40 g/ha | [11]; Mefenpyr-diethyl 80 g/ha | [12]; Mefenpyr-diethyl 20 g/ha | [12]; Mefenpyr-diethyl 40 g/ha | [12]; Mefenpyr-diethyl 80 g/ha | [13]; Mefenpyr-diethyl 20 g/ha | [13]; Mefenpyr-diethyl 40 g/ha | [13]; Mefenpyr-diethyl 80 g/ha | [14]; Mefenpyr-diethyl 20 g/ha | [14]; Mefenpyr-diethyl 40 g/ha | [14]; Mefenpyr-diethyl 80 g/ha | [15]; Mefenpyr-diethyl 20 g/ha | [15]; Mefenpyr-diethyl 40 g/ha | [15]; Mefenpyr-diethyl 80 g/ha | [16]; Mefenpyr-diethyl 20 g/ha | [16]; Mefenpyr-diethyl 40 g/ha | [16]; Mefenpyr-diethyl 80 g/ha
